Assay [1] concerns the target T1, recombinant full-length WRN protein (1-1432) (Homo sapiens, UniProt Q14191).
T1 construct: recombinant full-length WRN protein (1-1432)
Kind of assay: WRN unwinding activity, fluorogenic 384-well assay (Example A). It counts as biochemical. As to conditions: WRN unwinding activity, 4 hr; Table 2; read-out: 4 hr UNW pIC50 (converted). The procedure, abridged: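 Read-out is end-point unwinding of a fluorophore/quencher duplex (ex 525, em 598 nm) after 60 min with 200 μM ATP and 12 nM DNA (2× stocks), EDTA stop. Compound first sat 4 h with 200 pM WRN (2× stock) in pH 8.0 Tris buffer; four-parameter fit gives pIC50.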

Assay [2] has as its system SW48 human colorectal cancer cells (MSI-H cancer cells). Kind of assay: SW48 cell viability, CellTiter-Glo, 120 hours (Example B). The note with it: Homo sapiens, SW48, 120 h, read-out: SW48 pCC50, SW48 cell viability, 120 hours incubation (converted); Table 2. A general note: ATP-based viability assays read luminescence as a measure of living cells.

Each structure is given as a SMILES string.

This is an account of results in patent US12662451B2, “Chemical compounds and uses thereof” (GLAXOSMITHKLINE INTELLECTUAL PROPERTY (NO.4) LIMITED, priority 2023, dated 2026).

T1 sequence (Q14191 whole entry): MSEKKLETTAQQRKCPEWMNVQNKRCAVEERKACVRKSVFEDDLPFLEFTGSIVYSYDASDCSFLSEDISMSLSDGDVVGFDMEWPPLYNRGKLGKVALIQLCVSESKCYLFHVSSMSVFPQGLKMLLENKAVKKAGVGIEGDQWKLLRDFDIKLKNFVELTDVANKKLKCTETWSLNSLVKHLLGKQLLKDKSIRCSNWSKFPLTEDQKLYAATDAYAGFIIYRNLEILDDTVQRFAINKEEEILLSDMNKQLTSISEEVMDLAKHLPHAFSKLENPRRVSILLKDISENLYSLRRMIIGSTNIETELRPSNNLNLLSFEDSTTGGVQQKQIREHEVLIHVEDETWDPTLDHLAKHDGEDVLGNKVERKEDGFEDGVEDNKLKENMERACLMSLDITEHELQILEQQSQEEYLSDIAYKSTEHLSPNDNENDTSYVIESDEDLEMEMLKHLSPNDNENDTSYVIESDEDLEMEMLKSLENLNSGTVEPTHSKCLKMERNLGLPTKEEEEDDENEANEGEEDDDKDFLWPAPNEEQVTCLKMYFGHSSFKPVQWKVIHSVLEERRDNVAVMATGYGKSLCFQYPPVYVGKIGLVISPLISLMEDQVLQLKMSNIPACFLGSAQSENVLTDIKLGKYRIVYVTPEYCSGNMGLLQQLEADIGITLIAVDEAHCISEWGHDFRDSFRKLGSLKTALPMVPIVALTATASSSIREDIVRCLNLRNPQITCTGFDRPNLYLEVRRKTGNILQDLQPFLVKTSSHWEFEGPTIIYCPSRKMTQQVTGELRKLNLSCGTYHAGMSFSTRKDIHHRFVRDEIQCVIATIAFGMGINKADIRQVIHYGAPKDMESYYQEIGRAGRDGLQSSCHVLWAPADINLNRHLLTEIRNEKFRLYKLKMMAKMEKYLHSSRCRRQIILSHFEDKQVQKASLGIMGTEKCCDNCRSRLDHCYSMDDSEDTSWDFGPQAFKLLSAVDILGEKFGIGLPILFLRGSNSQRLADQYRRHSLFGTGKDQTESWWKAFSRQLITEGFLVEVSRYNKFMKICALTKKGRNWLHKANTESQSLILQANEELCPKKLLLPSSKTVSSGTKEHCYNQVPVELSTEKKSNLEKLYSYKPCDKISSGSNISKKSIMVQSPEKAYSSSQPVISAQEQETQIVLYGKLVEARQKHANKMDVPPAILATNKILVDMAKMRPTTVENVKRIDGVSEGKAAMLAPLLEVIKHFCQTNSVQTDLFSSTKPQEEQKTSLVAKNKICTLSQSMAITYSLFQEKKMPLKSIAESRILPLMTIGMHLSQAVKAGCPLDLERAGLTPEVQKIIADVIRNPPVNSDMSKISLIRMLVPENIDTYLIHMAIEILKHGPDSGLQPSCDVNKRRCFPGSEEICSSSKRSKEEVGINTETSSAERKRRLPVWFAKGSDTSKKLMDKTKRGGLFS

Take `N#Cc1cscc1-c1ccc([C@H]2CCC[C@@H](C(=O)Nc3ccc(C(F)(F)F)cc3F)[C@@H]2C(=O)O)cc1` [Example 32, (1R,2S,6R)-2-(4-(4-cyanothiophen-3-yl)phenyl)-6-((2-fluoro-4-(trifluoromethyl)phenyl)carbamoyl)cyclohe xane-1-carboxylic acid]: the IC50 in assay [1] is 0.0794 µM. Further, the CC50 in assay [2] was 10 µM.
The like results for `O=C(O)[C@@H]1[C@@H](c2ccc(-c3cccc4sccc34)cc2)CCC[C@H]1C(=O)Nc1ccc(C(F)(F)F)cc1F` [Example 35, (1R,2S,6R)-2-(4-(benzo[b]thiophen-4-yl)phenyl)-6-((2-fluoro-4-(trifluoromethyl)phenyl)carbamoyl) cyclohexane-1-carboxylic acid] were, in that order, 2 µM and 6.31 µM.
Take `O=C(O)[C@@H]1[C@@H](c2ccc(-c3nsc4ccccc34)cc2)CCC[C@H]1C(=O)Nc1ccc(C(F)(F)F)cc1F` [Example 36, (1R,2S,6R)-2-(4-(benzo[d]isothiazol-3-yl)phenyl)-6-((2-fluoro-4-(trifluoromethyl)phenyl)carbamoyl)cyclohe xane-1-carboxylic acid]: the IC50 in assay [1] is 0.631 µM. For the same compound, the CC50 in assay [2] was 5.01 µM.
The like results for `O=C(O)[C@@H]1[C@@H](c2ccc(-c3ccc(F)nn3)cc2)CCC[C@H]1C(=O)Nc1ccc(C(F)(F)F)cc1F` [Example 37] were, in that order, 0.002 µM and 2.51 µM.
`Cc1nnc(-c2ccc([C@H]3CCC[C@@H](C(=O)Nc4ccc(C(F)(F)F)cc4F)[C@@H]3C(=O)O)cc2)s1` [Example 41, (1R,2R,6S)-2-((2-fluoro-4-(trifluoromethyl)phenyl)carbamoyl)-6-(4-(5-methyl-1,3,4-thiadiazol-2-yl)phenyl)cyclohexane-1-carboxylic acid]: the IC50 in assay [1] was 0.00501 µM. For the same compound, the CC50 in assay [2] was 3.98 µM.
As for `O=C(O)[C@@H]1[C@@H](c2ccc(-c3cnoc3)cc2)CCC[C@H]1C(=O)Nc1ccc(C(F)(F)F)cc1F` [Example 48, (1R,2R,6S)-2-((2-fluoro-4-(trifluoromethyl)phenyl)carbamoyl)-6-(4-(isoxazol-4-yl)phenyl)cyclohexane-1-carboxylic acid], in assay [1], the IC50 is 0.0158 µM. Further, the CC50 in assay [2] is 5.01 µM.
With `Cc1oncc1-c1ccc([C@H]2CCC[C@@H](C(=O)Nc3ccc(C(F)(F)F)cc3F)[C@@H]2C(=O)O)cc1` [Example 53, (1R,2R,6S)-2-((2-fluoro-4-(trifluoromethyl)phenyl)carbamoyl)-6-(4-(5-methylisoxazol-4-yl)phenyl)cyclohexane-1-carboxylic acid], in assay [1], the IC50 was 0.0158 µM. The CC50 in assay [2] was 7.94 µM.
On to `N#Cc1ncc(-c2ccc([C@H]3CCC[C@@H](C(=O)Nc4ccc(C(F)(F)F)cc4F)[C@@H]3C(=O)O)cc2)cn1` [Example 54, (1R,2S,6R)-2-(4-(2-cyanopyrimidin-5-yl)phenyl)-6-((2-fluoro-4-(trifluoromethyl)phenyl)carbamoyl)cyclohexane-1-carboxylic acid], for which the IC50 in assay [1] is 0.00501 µM. In addition, the CC50 in assay [2] is 7.94 µM.
`N#Cc1ccc(-c2ccc([C@H]3CCC[C@@H](C(=O)Nc4ccc(C(F)(F)F)cc4F)[C@@H]3C(=O)O)cc2)nn1` [Example 55, (1R,2S,6R)-2-(4-(6-cyanopyridazin-3-yl)phenyl)-6-((2-fluoro-4-(trifluoromethyl)phenyl)carbamoyl) cyclohexane-1-carboxylic acid]: the IC50 in assay [1] is 0.00251 µM. In assay [2], the CC50 was 10 µM.
The like results for `O=C(O)[C@@H]1[C@@H](c2ccc(C3=CCS(=O)(=O)C3)cc2)CCC[C@H]1C(=O)Nc1ccc(C(F)(F)F)cc1F` [Example 58, (1R,2S,6R)-2-(4-(1,1-dioxido-2,5-dihydrothiophen-3-yl)phenyl)-6-((2-fluoro-4-(trifluoromethyl)phenyl)carbamoyl) cyclohexane-1-carboxylic acid] were, in that order, 0.0316 µM and 15.8 µM.
In the case of `CN(c1ccc([C@H]2CCC[C@@H](C(=O)Nc3ccc(C(F)(F)F)cc3F)[C@@H]2C(=O)O)cc1)S(=O)(=O)c1ccc2occc2c1` [Example 93, (1R,2R,6S)-2-((2-fluoro-4-(trifluoromethyl)phenyl)carbamoyl)-6-(4-(N-methylbenzofuran-5-sulfonamido)phenyl)cyclohexane-1-carboxylic acid], the IC50 in assay [1] is 0.00251 µM. The CC50 in assay [2] was 2.51 µM.
For `CN(c1ccc([C@H]2CCC[C@@H](C(=O)Nc3ccc(C(F)(F)F)cc3F)[C@@H]2C(=O)O)cc1)S(=O)(=O)c1cccnc1` [Example 95, (1R,2R,6S)-2-((2-fluoro-4-(trifluoromethyl)phenyl)carbamoyl)-6-(4-(N-methylpyridine-3-sulfonamido)phenyl)cyclohexane-1-carboxylic acid], in assay [1], the IC50 was 0.00251 µM. For the same compound, the CC50 in assay [2] was 3.16 µM.
Take `CN(c1ccc([C@H]2CCC[C@@H](C(=O)Nc3ccc(C(F)(F)F)cc3F)[C@@H]2C(=O)O)cc1)S(=O)(=O)c1ccc2oc(=O)n(C)c2c1` [Example 100, (1R,2S,6R)-2-(4-((N,3-dimethyl-2-oxo-2,3-dihydrobenzo[d]oxazole)-5-sulfonamido)phenyl)-6-((2-fluoro-4-(trifluoromethyl)phenyl)carbamoyl)cyclohexane-1-carboxylic acid]: the IC50 in assay [1] is 0.00501 µM. Moreover, the CC50 in assay [2] is 3.98 µM.
As for `CN(c1ccc([C@H]2CCC[C@@H](C(=O)Nc3ccc(C(F)(F)F)cc3F)[C@@H]2C(=O)O)cc1)S(=O)(=O)c1ccc2nc(O)sc2c1` [Example 102, (1R,2R,6S)-2-((2-fluoro-4-(trifluoromethyl)phenyl)carbamoyl)-6-(4-((2-hydroxy-N-methylbenzo[d]thiazole)-6-sulfonamido)phenyl)cyclohexane-1-carboxylic acid], the IC50 in assay [1] is 0.00631 µM. The CC50 in assay [2] is 10 µM.
For the compound `Cc1cc(C)c(S(=O)(=O)N(C)c2ccc([C@H]3CCC[C@@H](C(=O)Nc4ccc(C(F)(F)F)cc4F)[C@@H]3C(=O)O)cc2)c(C)c1` [Example 103, (1R,2R,6S)-2-((2-fluoro-4-(trifluoromethyl)phenyl)carbamoyl)-6-(4-((N,2,4,6-tetramethylphenyl)sulfonamido)phenyl)cyclohexane-1-carboxylic acid], the IC50 in assay [1] is 0.00158 µM. Also, the CC50 in assay [2] is 12.6 µM.
Regarding `CN(c1ccc([C@H]2CCC[C@@H](C(=O)Nc3ccc(C(F)(F)F)cc3F)[C@@H]2C(=O)O)cc1)S(=O)(=O)c1c(Cl)cc(C(F)(F)F)cc1Cl` [Example 104, (1R,2S,6R)-2-(4-((2,6-dichloro-N-methyl-4-(trifluoromethyl)phenyl)sulfonamido)phenyl)-6-((2-fluoro-4-(trifluoromethyl)phenyl)carbamoyl)cyclohexane-1-carboxylic acid], in assay [1], the IC50 is 0.0398 µM. For the same compound, the CC50 in assay [2] was 3.98 µM.
With `CN(c1ccc([C@H]2CCC[C@@H](C(=O)Nc3ccc(C(F)(F)F)cc3F)[C@@H]2C(=O)O)cc1)S(=O)(=O)c1ccc2ocnc2c1` [Example 106, (1R,2R,6S)-2-((2-fluoro-4-(trifluoromethyl)phenyl)carbamoyl)-6-(4-(N-methylbenzo[d]oxazole-5-sulfonamido)phenyl)cyclohexane-1-carboxylic acid], the IC50 in assay [1] is 0.00316 µM. In addition, the CC50 in assay [2] is 1.58 µM.
For `CN(c1ccc([C@H]2CCC[C@@H](C(=O)Nc3ccc(C(F)(F)F)cc3F)[C@@H]2C(=O)O)cc1)S(=O)(=O)c1ccc2c(c1)CN(C(=O)C(F)(F)F)CC2` [Example 108, (1R,2R,6S)-2-((2-fluoro-4-(trifluoromethyl)phenyl)carbamoyl)-6-(4-((N-methyl-2-(2,2,2-trifluoroacetyl)-1,2,3,4-tetrahydroisoquinoline)-7-sulfonamido)phenyl)cyclohexane-1-carboxylic acid], in assay [1], the IC50 is 0.00316 µM. Further, the CC50 in assay [2] is 2 µM.
On to `CN(c1ccc([C@H]2CCC[C@@H](C(=O)Nc3ccc(C(F)(F)F)cc3F)[C@@H]2C(=O)O)cc1)S(=O)(=O)c1ccc2c(c1)CCN(C(=O)C(F)(F)F)C2` [Example 111, (1R,2R,6S)-2-((2-fluoro-4-(trifluoromethyl)phenyl)carbamoyl)-6-(4-((N-methyl-2-(2,2,2-trifluoroacetyl)-1,2,3,4-tetrahydroisoquinoline)-6-sulfonamido)phenyl)cyclohexane-1-carboxylic acid], for which the IC50 in assay [1] is 0.00251 µM. In addition, the CC50 in assay [2] was 1.58 µM.
Turning to `CN1CCc2c(cccc2S(=O)(=O)N(C)c2ccc([C@H]3CCC[C@@H](C(=O)Nc4ccc(C(F)(F)F)cc4F)[C@@H]3C(=O)O)cc2)C1` [Example 114, (1R,2S,6R)-2-(4-((N,2-dimethyl-1,2,3,4-tetrahydroisoquinoline)-5-sulfonamido)phenyl)-6-((2-fluoro-4-(trifluoromethyl)phenyl)carbamoyl)cyclohexane-1-carboxylic acid], the IC50 in assay [1] is 0.00794 µM. For the same compound, the CC50 in assay [2] was 2.51 µM.
As to `CN(c1ccc([C@H]2CCC[C@@H](C(=O)Nc3ccc(C(F)(F)F)cc3F)[C@@H]2C(=O)O)cc1)S(=O)(=O)c1ccc(C2CCN(C(=O)OC(C)(C)C)CC2)cc1` [Example 115, (1R,2S,6R)-2-(4-((3-(1-(tert-butoxycarbonyl)piperidin-4-yl)-N-methylphenyl)sulfonamido)phenyl)-6-((2-fluoro-4-(trifluoromethyl)phenyl)carbamoyl)cyclohexane-1-carboxylic acid], the IC50 in assay [1] was 0.00501 µM. For the same compound, in assay [2], the CC50 was 1.26 µM.
For the compound `CN(c1ccc([C@H]2CCC[C@@H](C(=O)Nc3ccc(C(F)(F)F)cc3F)[C@@H]2C(=O)O)cc1)S(=O)(=O)c1cccc(C2OCCO2)c1` [Example 118, (1R,2S,6R)-2-(4-((3-(1,3-dioxolan-2-yl)-N-methylphenyl)sulfonamido)phenyl)-6-((2-fluoro-4-(trifluoromethyl)phenyl)carbamoyl)cyclohexane-1-carboxylic acid], in assay [1], the IC50 is 0.002 µM. For the same compound, the CC50 in assay [2] is 1.26 µM.
